These results are taken from patent US20090111778A1, “2-Keto-Oxazoles as Modulators of Fatty Acid Amide Hydrolase” (priority 2005, published 2009).

Assay [1] has as its target T1, rat FAAH (Rattus norvegicus, UniProt P97612).
T1 construct: expressed in transfected cells
T1 sequence (P97612 1-579): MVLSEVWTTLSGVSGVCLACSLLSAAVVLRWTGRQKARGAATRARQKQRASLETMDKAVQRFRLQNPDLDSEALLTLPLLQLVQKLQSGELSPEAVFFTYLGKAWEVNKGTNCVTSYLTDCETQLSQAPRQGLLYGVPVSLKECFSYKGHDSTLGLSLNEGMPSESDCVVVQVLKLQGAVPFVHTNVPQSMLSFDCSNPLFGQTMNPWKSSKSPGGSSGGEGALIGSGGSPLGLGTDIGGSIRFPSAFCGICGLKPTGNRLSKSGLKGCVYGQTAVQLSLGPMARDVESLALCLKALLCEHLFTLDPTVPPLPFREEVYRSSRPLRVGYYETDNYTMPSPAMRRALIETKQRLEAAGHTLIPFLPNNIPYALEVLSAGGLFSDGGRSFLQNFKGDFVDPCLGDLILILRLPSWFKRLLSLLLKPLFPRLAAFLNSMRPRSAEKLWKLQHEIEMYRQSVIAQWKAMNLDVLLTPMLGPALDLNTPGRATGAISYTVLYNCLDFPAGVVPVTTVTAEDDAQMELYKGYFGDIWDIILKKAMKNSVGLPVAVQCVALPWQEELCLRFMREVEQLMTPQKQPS
Description: Assay Method 2: FAAH assay, hydrolysis of 3H-anandamide by homogenate of SK-N-MC cells transfected with rat FAAH. The conditions noted are these: T84 or transfected SK-N-MC cell homogenate, 3H-AEA tracer 80 nM, rt 1 h, pH 9. Type of assay: biochemical. Put shortly:
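SK-N-MC cells stably transfected with rat FAAH cDNA (electroporation, G418 selection); homogenate hydrolyses 3H-anandamide. Reaction 1 h at rt, then filtered through activated charcoal; unbound labelled ethanolamine in filtrate counted by scintillation.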

The target of assay [2] is T2, human FAAH (Homo sapiens, UniProt O00519).
T2 construct: expressed in transfected cells
T2 sequence (O00519 1-579): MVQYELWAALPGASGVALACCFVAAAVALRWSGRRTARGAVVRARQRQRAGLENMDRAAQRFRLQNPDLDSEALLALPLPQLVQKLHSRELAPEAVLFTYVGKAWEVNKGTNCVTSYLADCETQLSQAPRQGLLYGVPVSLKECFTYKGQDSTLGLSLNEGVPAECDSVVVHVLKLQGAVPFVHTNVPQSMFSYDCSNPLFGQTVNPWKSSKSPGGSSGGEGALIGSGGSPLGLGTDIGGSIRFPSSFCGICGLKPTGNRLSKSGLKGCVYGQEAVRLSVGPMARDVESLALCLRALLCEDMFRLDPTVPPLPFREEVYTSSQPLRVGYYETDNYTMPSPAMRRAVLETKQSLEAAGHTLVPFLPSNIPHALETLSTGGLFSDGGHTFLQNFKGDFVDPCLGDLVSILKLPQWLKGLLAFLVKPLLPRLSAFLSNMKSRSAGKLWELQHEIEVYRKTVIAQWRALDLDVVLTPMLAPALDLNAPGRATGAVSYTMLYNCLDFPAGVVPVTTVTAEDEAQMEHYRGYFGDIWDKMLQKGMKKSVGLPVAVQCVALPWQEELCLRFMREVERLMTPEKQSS
The assay is described as follows: Assay Method 1: FAAH assay, hydrolysis of 3H-anandamide by homogenate of SK-N-MC cells transfected with human FAAH. Type of assay: biochemical. The conditions noted are these: human FAAH; T84 or transfected SK-N-MC cell homogenate; 3H-AEA tracer 80 nM; rt 1 h; pH 9; read-out: Assay 1 IC50. The procedure, abridged:
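Homogenate of SK-N-MC cells stably expressing human FAAH (G418-selected clones) incubated with compound and 80 nM [1-3H-ethanolamine]anandamide for 1 h at rt. Released 3H-ethanolamine separated from substrate by activated-charcoal filtration, then counted by scintillation.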

Where a name gives a salt, the structure may show the parent alone.

Consider `O=C(O)c1cnc(C(=O)CCCC2CCN(Cc3cccc(Oc4ccccc4)c3)CC2)o1` [Example 145, 2-{4-[1-(3-Phenoxy-benzyl)-piperidin-4-yl]-butyryl}-oxazole-5-carboxylic acid trifluoroacetic acid salt], for which the values for the IC50 in assay [1] and in assay [2] were 3 nM and 6 nM, respectively.
`O=C(CCCC1CCN(S(=O)(=O)c2ccccc2)CC1)c1ncco1` [Example 59, 4-(1-Benzenesulfonyl-piperidin-4-yl)-1-oxazol-2-yl-butan-1-one]: the IC50 in assay [1] was determined as 165 nM; in assay [2] it was 705 nM.
For `CC(C)(C)OC(=O)N1CCC(CCCC(=O)c2ncco2)CC1` [Example 1, 4-(4-Oxazol-2-yl-4-oxo-butyl)-piperidine-1-carboxylic acid tert-butyl ester] the same measures were 27 nM and 1.8 nM.
In the case of `O=C(CCCC1CCN(Cc2ccc(Oc3ccccc3)nc2)CC1)c1ncco1` [Example 105, 1-Oxazol-2-yl-4-[1-(6-phenoxy-pyridin-3-ylmethyl)-piperidin-4-yl]-butan-1-one], the IC50 in assay [1] worked out at 57 nM; in assay [2], 53 nM.
Take `O=C(CCCC1CCN(C(=O)Cc2ccccc2)CC1)c1ncco1` [Example 27, 1-Oxazol-2-yl-4-(1-phenylacetyl-piperidin-4-yl)-butan-1-one]: the IC50 was 1300 nM in assay [1] and 500 nM in assay [2].
For `COc1cccc(-c2ccc(CN3CCC(CCCC(=O)c4ncco4)CC3)cn2)c1` [Example 104, 4-{1-[6-(3-Methoxy-phenyl)-pyridin-3-ylmethyl]-piperidin-4-yl}-1-oxazol-2-yl-butan-1-one], in that order: 48 nM and 4 nM.
For `CC(C)Oc1ccc(CN2CCC(CCCC(=O)c3ncco3)CC2)cc1` [Example 23, 4-[1-(4-isopropoxy-benzyl)-piperidin-4-yl]-1-oxazol-2-yl-butan-1-one] the same measures were 31 nM and 14 nM.
For `O=C(CCCC1CCN(Cc2ccc(Br)c(Br)c2)CC1)c1ncco1` [Example 11, 4-[1-(3,4-Dibromo-benzyl)-piperidin-4-yl]-1-oxazol-2-yl-butan-1-one], the IC50 in assay [1] is 95 nM; in assay [2] it was 36 nM.
As for `CCc1ccc(CN2CCC(CCCC(=O)c3ncco3)CC2)cc1` [Example 71, 4-[1-(4-Ethyl-benzyl)-piperidin-4-yl]-1-oxazol-2-yl-butan-1-one], the IC50 in assay [1] worked out at 49 nM; in assay [2] it was 7 nM.
Regarding `CN(C)c1ccc(CN2CCC(CCCC(=O)c3ncco3)CC2)cc1` [Example 88, 4-[1-(4-Dimethylamino-benzyl)-piperidin-4-yl]-1-oxazol-2-yl-butan-1-one], the results for the concentration for half-maximal inhibition (IC50) in assay [1] and in assay [2] were 3000 nM and 325 nM, respectively.
For the molecule `O=C(CCCC1CCN(Cc2cc(F)ccc2F)CC1)c1ncco1` [Example 113, 4-[1-(2,5-Difluoro-benzyl)-piperidin-4-yl]-1-oxazol-2-yl-butan-1-one], the IC50 in assay [1] was found to be 318 nM; in assay [2], 28 nM.
`O=C(CCCC1CCN(S(=O)(=O)c2ccc(Cl)cc2)CC1)c1ncco1` [Example 60, 4-[1-(4-Chloro-benzenesulfonyl)-piperidin-4-yl]-1-oxazol-2-yl-butan-1-one]: the IC50 was determined as 34 nM in assay [1] and 4 nM in assay [2].
Regarding `O=C(CCCC1CCN(Cc2ccc(-c3ccsc3)nc2)CC1)c1ncco1` [Example 111, 1-Oxazol-2-yl-4-[1-(6-thiophen-3-yl-pyridin-3-ylmethyl)-piperidin-4-yl]-butan-1-one], the values for the IC50 in assay [1] and in assay [2] were 193 nM and 15 nM, respectively.
For `O=C(CCCC1CCN(Cc2ccc3ccccc3c2)CC1)c1ncco1` [Example 20, 4-(1-Naphthalen-2-ylmethyl-piperidin-4-yl)-1-oxazol-2-yl-butan-1-one] the same measures were 9 nM and 8 nM.
For `CC(C)c1cccc(CN2CCC(CCCC(=O)c3ncco3)CC2)c1` [Example 140, 4-[1-(3-Isopropyl-benzyl)-piperidin-4-yl]-1-oxazol-2-yl-butan-1-one] the same measures were 3 nM and 1 nM.
For `O=C(CCCC1CCN(C(=O)c2ccccc2)CC1)c1ncco1` [Example 28, 4-(1-Benzoyl-piperidin-4-yl)-1-oxazol-2-yl-butan-1-one], in that order: 563 nM and 67 nM.
For the molecule `O=C(CCCC1CCN(Cc2cccc(F)c2)CC1)c1ncco1` [Example 8, 4-[1-(3-Fluoro-benzyl)-piperidin-4-yl]-1-oxazol-2-yl-butan-1-one], the results for the IC50 in assay [1] and in assay [2] were 350 nM and 100 nM, respectively.
For `O=C(CCCC1CCN(Cc2ccc(F)cc2F)CC1)c1ncco1` [Example 114, 4-[1-(2,4-Difluoro-benzyl)-piperidin-4-yl]-1-oxazol-2-yl-butan-1-one], the IC50 in assay [1] amounted to 325 nM; in assay [2] it was 110 nM.
Consider `CCN(CC)c1ccc(CN2CCC(CCCC(=O)c3ncco3)CC2)cc1` [Example 89, 4-[1-(4-Diethylamino-benzyl)-piperidin-4-yl]-1-oxazol-2-yl-butan-1-one], for which the values for the 50% inhibitory concentration (IC50) in assay [1] and in assay [2] were 700 nM and 130 nM, respectively.
With `O=C(CCCC1CCN(Cc2ccc(OC3CCCCC3)cc2)CC1)c1ncco1` [Example 134, 4-[1-(4-Cyclohexyloxy-benzyl)-piperidin-4-yl]-1-oxazol-2-yl-butan-1-one], the IC50 in assay [1] and in assay [2] was 119 nM each time.
In the case of `O=C(CCCC1CCN(C(=O)COCc2ccccc2)CC1)c1ncco1` [Example 34, 4-[1-(2-Benzyloxy-acetyl)-piperidin-4-yl]-1-oxazol-2-yl-butan-1-one], the IC50 in assay [1] was determined as 250 nM; in assay [2] it was 240 nM.
On to `Cc1ccc(CN2CCC(CCCC(=O)c3ncco3)CC2)cc1` [Example 18, 4-[1-(4-Methyl-benzyl)-piperidin-4-yl]-1-oxazol-2-yl-butan-1-one], for which the IC50 in assay [1] came to 1000 nM; in assay [2] it was 400 nM.
For `COc1ccc(S(=O)(=O)N2CCC(CCCC(=O)c3ncco3)CC2)cc1` [Example 61, 4-[1-(4-Methoxy-benzenesulfonyl)-piperidin-4-yl]-1-oxazol-2-yl-butan-1-one], in that order: 37 nM and 2 nM.
For `CC(C)c1ccc(CN2CCC(CCCC(=O)c3ncco3)CC2)cn1` [Example 132, 4-[1-(6-Isopropyl-pyridin-3-ylmethyl)-piperidin-4-yl]-1-oxazol-2-yl-butan-1-one] the same measures were 950 nM and 52 nM.
On to `CC(C)COC(=O)N1CCC(CCCC(=O)c2ncco2)CC1` [Example 68, 4-(4-Oxazol-2-yl-4-oxo-butyl)-piperidine-1-carboxylic acid isobutyl ester], for which the half-maximal inhibitory concentration (IC50) in assay [1] is 55 nM; in assay [2], 10 nM.
On to `O=C(CCCC1CCN(Cc2ccc(C3CCCCC3)cc2)CC1)c1ncco1` [Example 101, 4-[1-(4-Cyclohexyl-benzyl)-piperidin-4-yl]-1-oxazol-2-yl-butan-1-one], for which the IC50 in assay [1] was 44 nM; in assay [2], 23 nM.
As for `CC(c1ccccc1)N1CCC(CCCC(=O)c2ncco2)CC1` (stereo not shown) [Example 142, 1-Oxazol-2-yl-4-[1-(1-phenyl-ethyl)-piperidin-4-yl]-butan-1-one], the IC50 turned out to be 3000 nM in assay [1] and 190 nM in assay [2].
Take `COCCOC(=O)N1CCC(CCCC(=O)c2ncco2)CC1` [Example 65, 4-(4-Oxazol-2-yl-4-oxo-butyl)-piperidine-1-carboxylic acid 2-methoxy-ethyl ester]: the IC50 is 240 nM in assay [1] and 69 nM in assay [2].
For `O=C(CCCC1CCN(C(=O)C2CCCCC2)CC1)c1ncco1` [Example 29, 4-(1-Cyclohexanecarbonyl-piperidin-4-yl)-1-oxazol-2-yl-butan-1-one] the same measures were 180 nM and 45 nM.
